Like-named read-outs stand apart in the source and are kept apart here.
What was measured:
[1] = test system: HUVEC with or without PBMC (3C, 4H, SAG and LPS systems); test: BioMAP inflammation model systems (3C, 4H, SAG, LPS), cell-based ELISA profiling; design: species or system human; conditions: 4 systems (3C, 4H, SAG, LPS); concentration of 5 micromolar; 24 h stimulation
IFN-gamma signaling = test: Gamma interferon signaling inhibition in cell-based (BioMAP) assay; design: species or system human; conditions: weakly inhibit T cell and monocyte activation (less than 50%) but inhibit IFN-gamma signaling and collagen production
Protocol: In another embodiment, the compounds of the invention are the subset of compounds of Formula (I) that are gamma interferon signaling inhibitors. […] Gamma interferon signaling inhibitors may be especially useful in treating the inflammation underlying multiple diseases including rheumatoid arthritis, systemic sclerosis, COPD, asthma, atherosclerosis, cirrhosis, pulmonary fibrosis, sarcoidosis, keloids, and renal fibrosis.
(§1) Human umbilical vein endothelial cells (HUVEC) were cultured as described in Kunkel et al., 2004, FASEB J 18:1279-1281. Peripheral blood mononuclear cells (PBMC) were prepared from buffy coats (Stanford Blood Bank, Stanford, Calif.) by centrifugation over Hisopaque-1077 (Sigma). Four assay systems, 3C, 4H, SAG, and LPS, were used. For the 3C system, HUVEC were cultured for 24 h in microtiter plates (Falcon; BD Biosciences), in the presence of cytokines IL-1β (1 ng/ml), TNF-α (5 ng/ml), and IFN-γ (20 ng/ml). For the 4H system, HUVEC were cultured in the presence of IL-4 (5 ng/ml) and histamine (10 μM). For the SAG system, HUVEC were cultured with PBMC (7.5×10^4) and SAG (20 ng/ml). For the LPS system, HUVEC were cultured with PBMC (7.5×10^4) and LPS (2 ng/ml). Compounds were added 1 h before stimulation and were present during the entire 24-h stimulation period. Cell-based enzyme-linked immunosorbent assay (ELISAs) were carried out as described. (See Kunkel et al., 2004, FASEB J 18:1279-1281.)

T cell activation = T cell activation inhibition in cell-based (BioMAP) assay; design: species or system human
Protocol: T-cell activation inhibitors may be especially useful in treating the inflammation underlying arthritis, psoriasis, vasculitis, multiple sclerosis, IBD, asthma, atherosclerosis, or other inflammatory disease.
as §1

monocyte activation = test: Monocyte activation inhibition in cell-based (BioMAP) assay; design: species or system human; conditions: weakly inhibit T cell activation, strongly inhibit monocyte activation, MCP-1 and IL-8 (at least 50%) in a cell-based assay
Protocol: as §1

[2] = test system: mouse peritoneal inflammation model; test: Mouse peritoneal inflammation model (thioglycollate); assay type: in vivo; conditions: 10 mg/kg intraperitoneal single dose, thioglycollate stimulus, peritoneal lavage at 4 and 24 hours
Protocol: The following example illustrates the ability of a compound useful in the methods of the present invention to reduce neutrophil and monocyte recruitment, as well as to reduce the total number of leukocytes in a mouse peritoneal inflammation model.
A single dose (10 mg/kg in 200 μl) of an anti-inflammatory pyrazolopyrimidine compound of the present invention (compound 30 in Table 1, above) was administered intraperionteally to a group of 6 mice while another group of 6 mice received an intraperitoneal injection of vehicle only. Fifteen minutes later, an inflammatory stimulus (thioglycollate, 200 μl) was administered intraperitoneally to each mouse. Peritoneal lavage was collected at 4 and 24 hours subsequent to stimulus administration.
Inflammatory infiltrate was recovered by injection of 10 ml of Ca++/Mg++ free PBS, massaging, and withdrawal. Total recovered cells were counted on a hemacytometer. The results are presented in FIG. 2 (average+/−SD of 6 mice).
Neutrophils, monocytes, lymphocytes and eosinophils were enumerated by analyzing smears of the peritoneal wash stained with Wright-Geimsa stain. The results are presented in FIG. 3 (average+/−SD of 6 mice).

[3] = strongly inhibit T cell activation: at least one listed gene product inhibited by at least 50% in a cell-based assay

Compound	Activity [1]	monocyte activation inhibitor classification (monocyte activation)	other results
CC(C)(C)n1nc(Cc2cccc3ccccc23)c2c(N)ncnc21 [Compound 7]	active	–	gamma interferon signaling inhibitor classification (IFN-gamma signaling): interferon gamma signaling inhibitor
Cc1cc(-c2nn(C(C)(C)C)c3ncnc(N)c23)cc2ccccc12 [Compound 8]	active	–	gamma interferon signaling inhibitor classification (IFN-gamma signaling): interferon gamma signaling inhibitor
Cc1ccc(-c2nn(C(C)(C)C)c3ncnc(N)c23)c2ccccc12 [Compound 9]	active	–	gamma interferon signaling inhibitor classification (IFN-gamma signaling): interferon gamma signaling inhibitor
CC(C)(C)n1nc(-c2ccc3ccccc3c2)c2c(N)ncnc21 [Compound 10]	active	–	T cell activation inhibitor classification (T cell activation; [3]): T cell activation inhibitor
CC(C)(C)n1nc(-c2ccc3c4c(cccc24)CC3)c2c(N)ncnc21 [Compound 11]	active	–	gamma interferon signaling inhibitor classification (IFN-gamma signaling): interferon gamma signaling inhibitor
CC(C)(C)n1nc(-c2ccc(F)c3ccccc23)c2c(N)ncnc21 [Compound 12]	active	–	gamma interferon signaling inhibitor classification (IFN-gamma signaling): interferon gamma signaling inhibitor
Cc1ccc(-c2nn(C(C)(C)C)c3ncnc(N)c23)cc1 [Compound 13, PP1, reference compound]	–	–	T cell activation inhibitor classification (T cell activation): T cell activation inhibitor
CC(C)(C)n1nc(-c2ccc3c(c2)OCO3)c2c(N)ncnc21 [Compound 15]	active	–	T cell activation inhibitor classification (T cell activation; [3]): T cell activation inhibitor
CC(C)(C)n1nc(-c2cccc(N)c2)c2c(N)ncnc21 [Compound 17]	active	–	T cell activation inhibitor classification (T cell activation; [3]): T cell activation inhibitor
CC(C)(C)n1nc(-c2cccc3ccccc23)c2c(N)ncnc21 [Compound 19]	active	–	gamma interferon signaling inhibitor classification (IFN-gamma signaling): interferon gamma signaling inhibitor
CC(C)(C)n1nc(Cc2ccccc2Cl)c2c(N)ncnc21 [Compound 30]	active	monocyte activation inhibitor	monocyte recruitment [2]: reduce; neutrophil recruitment [2]: reduce; total number of leukocytes [2]: reduce
Cc1ccccc1Cc1nn(C(C)(C)C)c2ncnc(N)c12 [Compound 31]	active	monocyte activation inhibitor	–
CC(C)(C)n1nc(Cc2ccccc2)c2c(N)ncnc21 [Compound 36]	active	monocyte activation inhibitor	–
CC(C)(C)n1nc(-c2cccc(O)c2)c2c(N)ncnc21 [Compound 41]	active	–	T cell activation inhibitor classification (T cell activation; [3]): T cell activation inhibitor
Cn1nc(-c2ccc3ccccc3c2)c2c(N)ncnc21 [Compound 48]	active	–	T cell activation inhibitor classification (T cell activation; [3]): T cell activation inhibitor
CC(C)n1nc(-c2cccc(O)c2)c2c(N)ncnc21 [Compound 54]	active	–	T cell activation inhibitor classification (T cell activation; [3]): T cell activation inhibitor
CC(C)(C)n1nc(Cc2ccccc2Br)c2c(N)ncnc21 [Compound 59]	active	monocyte activation inhibitor	–
CC(C)n1nc(Cc2ccccc2Cl)c2c(N)ncnc21 [Compound 62]	active	monocyte activation inhibitor	–
Nc1ncnc2c1c(Cc1ccccc1Cl)nn2C1CCCC1 [Compound 63]	active	monocyte activation inhibitor	–
CC(C)(C)n1nc(Cc2ccccc2F)c2c(N)ncnc21 [Compound 64]	active	monocyte activation inhibitor	–
CC(C)(C)n1nc(Cc2ccccc2C(F)(F)F)c2c(N)ncnc21 [Compound 65]	active	monocyte activation inhibitor	–
CC(C)(C)Cn1nc(Cc2ccccc2Cl)c2c(N)ncnc21 [Compound 72]	active	monocyte activation inhibitor	–
CNc1ncnc2c1c(Cc1ccccc1Cl)nn2C(C)(C)C [Compound 76]	active	monocyte activation inhibitor	–
